Assay results: PMC7031696 (Cell chemical biology, 2019)
Where two headings read alike, the source gives them in different places.

What was measured:
[1] = test system: Plasmodium falciparum 3D7-A10 parasites; experiment: Stage specificity assay (8-h exposure of synchronized stages, IC50^8h); format: cell-based; conditions: for IC50: Plasmodium falciparum
[2] = test system: asynchronous 3D7-A10 parasite cultures; experiment: Standard 72-h exposure asexual blood stage susceptibility assay (IC50^72h); format: cell-based, Plasmodium falciparum; conditions: Plasmodium falciparum, 3D7, 72 h, read-out: Overall (72hr assay) Mean IC50 (IC50^72h)
[3] = test system: 3D7-MR4 trophozoite parasite-infected RBCs; experiment: Metabolomic profiling (hydrophilic metabolite changes, UHPLC-MS); format: cell-based, Plasmodium falciparum

CN(C(=O)c1cn2c(-c3ccc(C(F)(F)F)cc3)cnc2cn1)c1ccc(C#N)cc1 [KAI407, reference compound]
Ratio lowest IC50 8hr/IC50 72hr ([1]; 3D7-A10): 3.9 | overall activity profile (stages on which active) ([1]; 8-h exposures): activity against only schizonts | IC50 ([1]; 3D7, read-out: Early rings Mean IC50, shift 2, 8-h exposure 0–8 hr, line 'shift 2'): 16.3 µM | IC50 ([1]; 3D7, read-out: Early trophozoites Mean IC50, shift 2, 8-h exposure 16–24 hr, line 'shift 2' of biphasic dose response): 5.14 µM | IC50 ([1]; 3D7, read-out: Late rings Mean IC50, shift 2, 8-h exposure 8–16 hr, line 'shift 2'): 14 µM | IC50 ([1]; 3D7, read-out: Late trophozoites Mean IC50, shift 1, 8-h exposure 24–32 hr, line 'shift 1' of biphasic dose response): 0.161 µM | IC50 ([1]; 3D7, read-out: Late trophozoites Mean IC50, shift 2, 8-h exposure 24–32 hr, line 'shift 2' of biphasic dose response): 13.4 µM | IC50 ([1]; 3D7, read-out: Schizonts Mean IC50, shift 2, 8-h exposure 32–40 hr, line 'shift 2'): 0.0462 µM | Stage of peak activity (Figure 6) ([1]; period when the parasite was most susceptible (lowest IC50^8h)): schizonts | IC50 [2]: 0.0118 µM | Log2(fold changes) 3-phosphoglycerate ([3]; metabolite 3-phosphoglycerate, log2 fold change): -0.5235 | Log2(fold changes) 4-Pyridoxic acid ([3]; metabolite 4-Pyridoxic acid, log2 fold change): 0.0000 | Log2(fold changes) 4-aminobutyrate ([3]; metabolite 4-aminobutyrate, log2 fold change): -0.0697 | Log2(fold changes) 4-phosphopantetheine ([3]; metabolite 4-phosphopantetheine, log2 fold change): -0.3259 | Log2(fold changes) 4-phosphopantothenate ([3]; metabolite 4-phosphopantothenate, log2 fold change): -0.0998 | Log2(fold changes) 5-aminopentanoic acid ([3]; metabolite 5-aminopentanoic acid, log2 fold change): 0.0000 | Log2(fold changes) 5-methyl-THF ([3]; metabolite 5-methyl-THF, log2 fold change): 0.0000 | Log2(fold changes) 5-phosphoribosyl-1-pyrophosphate ([3]; metabolite 5-phosphoribosyl-1-pyrophosphate, log2 fold change): 0.0000 | Log2(fold changes) 6-phospho-D-gluconate ([3]; metabolite 6-phospho-D-gluconate, log2 fold change): -0.0493 | Log2(fold change) HVDD ([3]; metabolite HVDD): 0.0000 | Log2(fold change) Hydroxyisocaproic acid ([3]; metabolite Hydroxyisocaproic acid): 0.0000 | Log2(fold change) IDP ([3]; metabolite IDP): -0.1372 | Log2(fold change) IMP ([3]; metabolite IMP): 0.0398 | Log2(fold change) Inositol ([3]; metabolite Inositol): 0.0000 | Log2(fold change) Isopentyl-PP ([3]; metabolite Isopentyl-PP): 0.0000 | Log2(fold change) L-arginino-succinate ([3]; metabolite L-arginino-succinate): 0.0109 | Log2(fold change) LD ([3]; metabolite LD): 0.0079 | Log2(fold change) Myristoyl/tetradecanoyl-CoA ([3]; metabolite Myristoyl/tetradecanoyl-CoA): 0.0000 | Log2(fold change) N-Acetyl-L-alanine ([3]; metabolite N-Acetyl-L-alanine): 0.0065 | Log2(fold change) N-acetyl-L-ornithine ([3]; metabolite N-acetyl-L-ornithine): -0.3674 | Log2(fold change) N-acetyl-glucosamine-1/6-phosphate ([3]; metabolite N-acetyl-glucosamine-1/6-phosphate): -0.2974 | Log2(fold change) N-acetyl-glutamate ([3]; metabolite N-acetyl-glutamate): -0.1156 | Log2(fold change) N-acetyl-glutamine ([3]; metabolite N-acetyl-glutamine): -0.4039 | Log2(fold change) N-carbamoyl-L-aspartate ([3]; metabolite N-carbamoyl-L-aspartate): -0.0890 | Log2(fold change) NAD+ ([3]; metabolite NAD+): -0.0062 | Log2(fold change) NADH ([3]; metabolite NADH): 0.3557 | Log2(fold change) NADP+ ([3]; metabolite NADP+): 0.1126 | Log2(fold change) NADPH ([3]; metabolite NADPH): 0.1591 | Log2(fold change) O-acetyl-L-serine ([3]; metabolite O-acetyl-L-serine): 0.0000 | Log2(fold change) Octoluse 8/1P ([3]; metabolite Octoluse 8/1P): -0.0134 | Log2(fold change) Octoluse Bisphosphate ([3]; metabolite Octoluse Bisphosphate): -0.3290 | Log2(fold change) PD ([3]; metabolite PD): -0.6855 | Log2(fold change) PE ([3]; metabolite PE): -0.6905 | Log2(fold change) PEE ([3]; metabolite PEE): -0.7885 | Log2(fold change) PEEK ([3]; metabolite PEEK): -0.8519 | Log2(fold change) PVNF ([3]; metabolite PVNF): -0.9231 | Log2(fold change) Pyroglutamic acid ([3]; metabolite Pyroglutamic acid): -0.1373 | Log2(fold change) Pyrophosphate ([3]; metabolite Pyrophosphate): 0.0000 | Log2(fold change) Ribose-5-phosphate ([3]; metabolite Ribose-5-phosphate): -0.3312 | Log2(fold change) S-adenosyl-L-homocysteine ([3]; metabolite S-adenosyl-L-homocysteine): -0.0194 | Log2(fold change) S-adenosyl-L-methioninamine ([3]; metabolite S-adenosyl-L-methioninamine): 0.0000 | Log2(fold change) S-adenosyl-L-methionine ([3]; metabolite S-adenosyl-L-methionine): 0.0000 | Log2(fold change) S-methyl-5'-thioadenosine ([3]; metabolite S-methyl-5'-thioadenosine): 0.0000 | Log2(fold change) SD ([3]; metabolite SD): -0.4923 | Log2(fold change) SDL ([3]; metabolite SDL): 0.0000 | Log2(fold change) SID ([3]; metabolite SID): 0.0000 | Log2(fold change) Sedoheptulose bisphosphate ([3]; metabolite Sedoheptulose bisphosphate): -0.3584 | Log2(fold change) Thiamine pyrophosphate ([3]; metabolite Thiamine pyrophosphate): 0.0000 | Log2(fold changes) UDP-D-glucose ([3]; metabolite UDP-D-glucose, log2 fold change): 0.1494 | Log2(fold changes) UDP-D-glucuronate ([3]; metabolite UDP-D-glucuronate, log2 fold change): 0.0070 | Log2(fold changes) UDP-N-acetyl-glucosamine ([3]; metabolite UDP-N-acetyl-glucosamine, log2 fold change): 0.1156 | Log2(fold changes) UDP ([3]; metabolite UDP, log2 fold change): 0.2283 | Log2(fold changes) UMP ([3]; metabolite UMP, log2 fold change): 0.2317 | Log2(fold changes) UTP ([3]; metabolite UTP, log2 fold change): 0.2213 | Log2(fold change) hydroxyphenylpyruvate ([3]; metabolite hydroxyphenylpyruvate): 0.0000 | Log2(fold change) hydroxyproline/Aminolevulinate ([3]; metabolite hydroxyproline/Aminolevulinate): -0.0075 | Log2(fold change) hypoxanthine ([3]; metabolite hypoxanthine): 0.1648 | Log2(fold change) indole ([3]; metabolite indole): 0.3490 | Log2(fold change) inosine ([3]; metabolite inosine): -0.0766 | Log2(fold change) isoleucine ([3]; metabolite isoleucine): 0.0000 | Log2(fold change) lactate ([3]; metabolite lactate): -0.2025 | Log2(fold change) leucine ([3]; metabolite leucine): 0.0000 | Log2(fold change) lysine ([3]; metabolite lysine): -0.5734 | Log2(fold change) malate ([3]; metabolite malate): -0.3950 | Log2(fold change) maleic acid ([3]; metabolite maleic acid): -0.3624 | Log2(fold change) methionine ([3]; metabolite methionine): 0.0256 | Log2(fold change) myo-inositol ([3]; metabolite myo-inositol): -0.1977 | Log2(fold change) nicotinamide mononucleotide ([3]; metabolite nicotinamide mononucleotide): 0.0000 | Log2(fold change) nicotinate ([3]; metabolite nicotinate): -0.1013 | Log2(fold change) ornithine ([3]; metabolite ornithine): -0.1781 | Log2(fold change) orotate ([3]; metabolite orotate): 0.2133 | Log2(fold change) orotidine-5'-phosphate ([3]; metabolite orotidine-5'-phosphate): 0.1629 | Log2(fold change) oxaloacetate ([3]; metabolite oxaloacetate): 0.0000 | Log2(fold change) p-aminobenzoate ([3]; metabolite p-aminobenzoate): -0.0216 | Log2(fold change) p-hydroxybenzoate ([3]; metabolite p-hydroxybenzoate): 0.3646 | Log2(fold change) pantothenate ([3]; metabolite pantothenate): -0.2828 | Log2(fold change) phenylalanine ([3]; metabolite phenylalanine): -0.1837 | Log2(fold change) phenylpyruvate ([3]; metabolite phenylpyruvate): 0.0000 | Log2(fold change) phosphoenolpyruvate ([3]; metabolite phosphoenolpyruvate): -0.3146 | Log2(fold change) prephenate ([3]; metabolite prephenate): -0.3616 | Log2(fold change) proline ([3]; metabolite proline): -0.1191 | Log2(fold change) pyridoxine ([3]; metabolite pyridoxine): -0.0925 | Log2(fold change) pyruvate ([3]; metabolite pyruvate): -0.4635 | Log2(fold change) riboflavin ([3]; metabolite riboflavin): 0.1454 | Log2(fold change) ribose ([3]; metabolite ribose): 0.2742 | Log2(fold change) ribose-phosphate ([3]; metabolite ribose-phosphate): 0.0000 | Log2(fold change) ribulose-5-phosphate ([3]; metabolite ribulose-5-phosphate): 0.0000 | Log2(fold change) serine ([3]; metabolite serine): 0.1757 | Log2(fold change) sn-glycerol-3-phosphate ([3]; metabolite sn-glycerol-3-phosphate): -0.3504 | Log2(fold change) succinate/Methylmalonic acid ([3]; metabolite succinate/Methylmalonic acid): -0.0586 | Log2(fold change) succinyl-CoA/methylmalonyl-CoA ([3]; metabolite succinyl-CoA/methylmalonyl-CoA): 0.0000 | Log2(fold change) taurine ([3]; metabolite taurine): 0.0000 | Log2(fold change) thiamine ([3]; metabolite thiamine): -0.0019 | Log2(fold change) threonine/homoserine ([3]; metabolite threonine/homoserine): -0.0036 | Log2(fold change) thymidine ([3]; metabolite thymidine): 0.0000 | Log2(fold changes) thymine ([3]; metabolite thymine, log2 fold change): 0.0000 | Log2(fold changes) trehalose-6-Phosphate ([3]; metabolite trehalose-6-Phosphate, log2 fold change): 0.0000 | Log2(fold changes) tryptophan ([3]; metabolite tryptophan, log2 fold change): -0.0140 | Log2(fold changes) tyrosine ([3]; metabolite tyrosine, log2 fold change): 0.0814 | Log2(fold changes) uridine ([3]; metabolite uridine, log2 fold change): 0.2403
